Drawing on patent publication US20260256789A1, “METHODS FOR TREATMENT OF CANCER” (Frontier Medicines Corporation, priority 2022, published 2026), this text covers IC50 for 27 compounds.

For this experiment, the target named is T1, KRAS G12C (GMPPNP-loaded) and cRAF Ras-binding domain (Homo sapiens, UniProt P01116, C118S/C51S/C80L/G12C).
T1 construct: truncated version comprising amino acids 1-169
T1 sequence (P01116 1-169 isoform P01116-2 G12C/C51S/C80L/C118S): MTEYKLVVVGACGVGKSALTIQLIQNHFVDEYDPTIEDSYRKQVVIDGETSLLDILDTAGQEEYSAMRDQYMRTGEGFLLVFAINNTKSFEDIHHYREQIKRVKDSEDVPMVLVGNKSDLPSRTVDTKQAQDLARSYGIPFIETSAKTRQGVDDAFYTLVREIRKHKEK
Description: Inhibition of KRAS G12C and cRAF binding (AlphaScreen). The conditions noted are these: KRAS G12C preloaded with GTP analogue GMPPNP, 2 hours preincubation. In outline: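 AlphaScreen used biotin-AviTag KRAS G12C (Cys-light, aa 1-169; 0.5 nM), GMPPNP-loaded, preincubated 2 h with compound (top 50 μM, 1:3, 10 points, 2% DMSO) in pH 7.4 Hepes buffer with 10 μM GMPPNP. GST-cRAF RBD (aa 50-131; 0.75 nM) plus beads were then added for 60-90 min at room temperature, and IC50 came from a 4-parameter fit.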
One may read the IC50 as the concentration that inhibits the measured activity by half. Low readings indicate inhibition by little substance, high ones a need for much substance. As for `C=CC(=O)N1CC[C@@H](N(C)c2nc(OCC34CCCN3CCC4)nc3c(F)c(-c4nc(N)cc5cccc(F)c45)ncc23)C1` [Example 75, (R)-1-(3-((7-(3-amino-8-fluoroisoquinolin-1-yl)-8-fluoro-2-((hexahydro-1H-pyrrolizin-7a-yl)methoxy)pyrido[4,3-d]pyrimidin-4-yl)(methyl)amino)pyrrolidin-1-yl)prop-2-en-1-one], the IC50 was 100 to 500 nM.
On to `C=CC(=O)N1CC[C@@H](N(C)c2nc(OC[C@@]34CCCN3C[C@H](F)C4)nc3c(F)c(-c4nc(N)cc5cccc(F)c45)ncc23)C1` [Example 76, 1-((R)-3-((7-(3-amino-8-fluoroisoquinolin-1-yl)-8-fluoro-2-(((2R,7aS)-2-fluorohexahydro-1H-pyrrolizin-7a-yl)methoxy)pyrido[4,3-d]pyrimidin-4-yl)(methyl)amino)pyrrolidin-1-yl)prop-2-en-1-one], for which the IC50 fell in the range of 10 to 100 nM.
`C=CC(=O)N1CC[C@@H](N(C)c2nc(OCC34CCCN3CCC4)nc3c(F)c(-c4nc(N)cc(C)c4C(F)(F)F)ncc23)C1` [Example 79, (R)-1-(3-((7-(6-amino-4-methyl-3-(trifluoromethyl)pyridin-2-yl)-8-fluoro-2-((tetrahydro-1H-pyrrolizin-7a(5H)-yl)methoxy)pyrido[4,3-d]pyrimidin-4-yl)(methyl)amino)pyrrolidin-1-yl)prop-2-en-1-one] had an IC50 of 10 to 100 nM.
Compound `CN(CC1CN(C(=O)/C=C/CN2CCOCC2)C1)c1nc(OC[C@@]23CCCN2C[C@H](F)C3)nc2c(F)c(-c3nc(N)cc4cccc(F)c34)ncc12` [Example 80, (E)-1-(3-(((7-(3-amino-8-fluoroisoquinolin-1-yl)-8-fluoro-2-(((2R,7aS)-2-fluorotetrahydro-1H-pyrrolizin-7a(5H)-yl)methoxy)pyrido[4,3-d]pyrimidin-4-yl)(methyl)amino)methyl)azetidin-1-yl)-4-morpholinobut-2-en-1-one] yielded an IC50 of no less than 500 nM.
On to `Cc1noc(/C=C/C(=O)N2CC[C@@H](N(C)c3nc(OC[C@@]45CCCN4C[C@H](F)C5)nc4c3C[C@H](C)[C@@H](c3nc(N)cc(C)c3C(F)(F)F)C4)C2)n1` [Example 81, (E)-1-((R)-3-(((6S,7S)-7-(6-amino-4-methyl-3-(trifluoromethyl)pyridin-2-yl)-2-(((2R,7aS)-2-fluorotetrahydro-1H-pyrrolizin-7a(5H)-yl)methoxy)-6-methyl-5,6,7,8-tetrahydroquinazolin-4-yl)(methyl)amino)pyrrolidin-1-yl)-3-(3-methyl-1,2,4-oxadiazol-5-yl)prop-2-en-1-one], for which the IC50 was 100 to 500 nM.
Then `Cc1cc(N)nc(-c2ncc3c(N(C)[C@@H]4CCN(C(=O)/C=C/[C@@H]5CCN5C)C4)nc(OC[C@@]45CCCN4C[C@H](F)C5)nc3c2F)c1C(F)(F)F` [Example 83], with less than 10 nM.
In the case of `CN(CC1CN(C(=O)/C=C/CN2CCOCC2)C1)c1nc(OC[C@@]23CCCN2C[C@H](F)C3)nc2c(F)c(-c3nc(N)cc4cccc(Cl)c34)ncc12` [Example 84, (E)-1-(3-(((7-(3-amino-8-chloroisoquinolin-1-yl)-8-fluoro-2-(((2R,7aS)-2-fluorotetrahydro-1H-pyrrolizin-7a(5H)-yl)methoxy)pyrido[4,3-d]pyrimidin-4-yl)(methyl)amino)methyl)azetidin-1-yl)-4-morpholinobut-2-en-1-one], the IC50 was 10 to 100 nM.
`Cc1cc(N)nc(-c2ncc3c(N(C)CC4CN(C(=O)/C=C/c5nc(C(C)C)no5)C4)nc(OC[C@@]45CCCN4C[C@H](F)C5)nc3c2F)c1C` [Example 85] had an IC50 of 100 to 500 nM.
Consider `Cc1ccc(N)nc1-c1ncc2c(N(C)[C@@H]3CCN(C(=O)/C=C/c4nc(C(C)C)no4)C3)nc(OC[C@@]34CCCN3C[C@H](F)C4)nc2c1F` [Example 86], for which the IC50 was 10 to 100 nM.
As for `Cc1nsc(/C=C/C(=O)N2CC[C@@H](N(C)c3nc(OC[C@@]45CCCN4C[C@H](F)C5)nc4c3C[C@H](C)[C@@H](c3nc(N)cc(C)c3C(F)(F)F)C4)C2)n1` [Example 88, (E)-1-((R)-3-(((6S,7S)-7-(6-amino-4-methyl-3-(trifluoromethyl)pyridin-2-yl)-2-(((2R,7aS)-2-fluorotetrahydro-1H-pyrrolizin-7a(5H)-yl)methoxy)-6-methyl-5,6,7,8-tetrahydroquinazolin-4-yl)(methyl)amino)pyrrolidin-1-yl)-3-(3-methyl-1,2,4-thiadiazol-5-yl)prop-2-en-1-one], the figure is no less than 500 nM; as for `Cc1cc(N)nc([C@@H]2Cc3nc(OC[C@@]45CCCN4C[C@H](F)C5)nc(N(C)[C@@H]4CCN(C(=O)/C=C/c5nc(C(C)(C)O)no5)C4)c3C[C@H]2C)c1C(F)(F)F` [Example 89, (E)-1-((R)-3-(((6R,7R)-7-(6-amino-4-methyl-3-(trifluoromethyl)pyridin-2-yl)-2-(((2R,7aS)-2-fluorotetrahydro-1H-pyrrolizin-7a(5H)-yl)methoxy)-6-methyl-5,6,7,8-tetrahydroquinazolin-4-yl)(methyl)amino)pyrrolidin-1-yl)-3-(3-(2-hydroxypropan-2-yl)-1,2,4-oxadiazol-5-yl)prop-2-en-1-one], less than 10 nM; as for `CN1CC[C@@H]1/C=C/C(=O)N1CC[C@@H](N(C)c2nc(OC[C@@]34CCCN3C[C@H](F)C4)nc3c(F)c(-c4nc(N)cc5cccc(F)c45)ncc23)C1` [Example 90], less than 10 nM.
Regarding `CN(C)CC#CC(=O)N1CC[C@@H](N(C)c2nc(OC[C@@]34CCCN3C[C@H](F)C4)nc3c(F)c(-c4nc(N)cc5cccc(Cl)c45)ncc23)C1` [Example 91], the IC50 lay in the range of 10 to 100 nM.
As for `CN(c1nc(OC[C@@]23CCCN2C[C@H](F)C3)nc2c(F)c(-c3nc(N)cc4cccc(F)c34)ncc12)[C@@H]1CCN(C(=O)/C=C/c2nc(C(C)(F)F)no2)C1` [Example 92], the figure is less than 10 nM; as for `CN(c1nc(OC[C@@]23CCCN2C[C@H](F)C3)nc2c(F)c(-c3nc(N)cc4cccc(Cl)c34)ncc12)[C@@H]1CCN(C(=O)/C=C/c2nc(C(C)(C)O)no2)C1` [Example 93], less than 10 nM.
Compound `Cc1cc(N)nc([C@H]2Cc3nc(OC[C@@]45CCCN4C[C@H](F)C5)nc(N(C)[C@@H]4CCN(C(=O)/C=C/c5nc(C(C)(C)O)no5)C4)c3C[C@@H]2C)c1C(F)(F)F` [Example 94, (E)-1-((R)-3-(((6S,7S)-7-(6-amino-4-methyl-3-(trifluoromethyl)pyridin-2-yl)-2-(((2R,7aS)-2-fluorotetrahydro-1H-pyrrolizin-7a(5H)-yl)methoxy)-6-methyl-5,6,7,8-tetrahydroquinazolin-4-yl)(methyl)amino)pyrrolidin-1-yl)-3-(3-(2-hydroxypropan-2-yl)-1,2,4-oxadiazol-5-yl)prop-2-en-1-one] returned an IC50 of no less than 500 nM.
With `Cc1noc(/C=C/C(=O)N2CC[C@@H](N(C)c3nc(OC[C@@]45CCCN4C[C@H](F)C5)nc4c3CCN(c3nc(N)cc(C)c3C(F)(F)F)C4)C2)n1` [Example 95, (E)-1-((R)-3-((7-(6-amino-4-methyl-3-(trifluoromethyl)pyridin-2-yl)-2-(((2R,7aS)-2-fluorotetrahydro-1H-pyrrolizin-7a(5H)-yl)methoxy)-5,6,7,8-tetrahydropyrido[3,4-d]pyrimidin-4-yl)(methyl)amino)pyrrolidin-1-yl)-3-(3-methyl-1,2,4-oxadiazol-5-yl)prop-2-en-1-one], the IC50 was no less than 500 nM.
`C=CC(=O)N1CC[C@@H](N(C)c2nc(OC[C@@]34CCCN3C[C@H](F)C4)nc3c(F)c(-c4nc(N)ccc4F)ncc23)C1` [Example 96, 1-((R)-3-((7-(6-amino-3-fluoropyridin-2-yl)-8-fluoro-2-(((2R,7aS)-2-fluorotetrahydro-1H-pyrrolizin-7a(5H)-yl)methoxy)pyrido[4,3-d]pyrimidin-4-yl)(methyl)amino)pyrrolidin-1-yl)prop-2-en-1-one] had an IC50 of no less than 500 nM.
`Cc1cc(N)nc(-c2ncc3c(N(C)CC4CN(C(=O)/C=C/c5nc(C(C)(C)O)no5)C4)nc(OC[C@@]45CCCN4C[C@H](F)C5)nc3c2F)c1C(F)(F)F` [Example 97] came in with an IC50 of 10 to 100 nM.
`C=CC(=O)N1CC[C@@H](N(C)c2nc(OCC34CCCN3CCC4)nc3c2CC(C)C(c2nc(N)cc(C)c2C(F)(F)F)C3)C1` (stereo partly drawn) [Example 98] returned an IC50 of 100 to 500 nM.
Then `CN1CC[C@@H]1/C=C/C(=O)N1CC[C@@H](N(C)c2nc(OC[C@@]34CCCN3C[C@H](F)C4)nc3c(F)c(-c4nc(N)cc5cccc(Cl)c45)ncc23)C1` [Example 99], with less than 10 nM; and `Cc1cc(N)nc(-c2ncc3c(N(C)[C@@H]4CCN(C(=O)C#CCN5CCOCC5)C4)nc(OC[C@@]45CCCN4C[C@H](F)C5)nc3c2F)c1C(F)(F)F` [Example 101], with 10 to 100 nM.
Then `CN(C)CC#CC(=O)N1CC[C@@H](N(C)c2nc(OC[C@@]34CCCN3C[C@H](F)C4)nc3c(F)c(-c4nc(N)cc5cccc(F)c45)ncc23)C1` [Example 106], with less than 10 nM; and `C=CC(=O)N1CC[C@@H](N(C)c2nc(OC[C@@]34CCCN3C[C@H](F)C4)nc3c(F)c(-c4cc(N)nc(C)c4C(F)(F)F)ncc23)C1` [Example 107, 1-((R)-3-((7-(6-amino-2-methyl-3-(trifluoromethyl)pyridin-4-yl)-8-fluoro-2-(((2R,7aS)-2-fluorotetrahydro-1H-pyrrolizin-7a(5H)-yl)methoxy)pyrido[4,3-d]pyrimidin-4-yl)(methyl)amino)pyrrolidin-1-yl)prop-2-en-1-one], with 10 to 100 nM.
Then `CN1CC[C@H]1/C=C/C(=O)N1CC[C@@H](N(C)c2nc(OC[C@@]34CCCN3C[C@H](F)C4)nc3c(F)c(-c4nc(N)cc5cccc(Cl)c45)ncc23)C1` [Example 108], with 10 to 100 nM; and `C=CC(=O)N1CC(CN(C)c2nc(OCC34CCCN3CCC4)nc3c2C[C@H](C)[C@@H](c2nc(N)cc(C)c2C(F)(F)F)C3)C1` [Example 109], with no less than 500 nM.
On to `CN(C)CC#CC(=O)N1CC(CN(C)c2nc(OC[C@@]34CCCN3C[C@H](F)C4)nc3c(F)c(-c4nc(N)cc5cccc(Cl)c45)ncc23)C1` [Example 110], for which the IC50 lay within 10 to 100 nM.
